Reference: the supplement of paper PMC13380429

What was measured:
[1] = tested on: A549-ACE2 infected with SARS-CoV-2; test: morphology score (similarity to uninfected cells); higher = more like uninfected cells; details: 24 h
Vero E6 [2] = test: cell viability relative to DMSO; higher = less toxic; details: 72 h
Calu-3 [3] = test: as above; details: 72 h
Caco-2 [4] = test: as above; details: 72 h
HepG2 [5] = test: as above; details: 72 h
U2OS [6] = test: as above; details: 72 h
[7] = tested on: A549-ACE2 infected with SARS-CoV-2; test: cell count relative to DMSO; higher = less toxic; details: 24 h
Vero E6 [8] = test: relative viability EC50 (midpoint between 100% and the lowest measured viability); higher = less toxic; details: 72 h
U2OS [9] = test: as above; details: 72 h
A549-ACE2 [10] = test: drug-induced phospholipidosis relative to tamoxifen; higher = more phospholipidosis
A549-ACE2 [11] = test: phospholipidosis EC50; higher = less potent phospholipidosis inducer
[12] = tested on: A549-ACE2 infected with SARS-CoV-2; test: SARS-CoV-2 infection rate relative to DMSO; higher = more infection; details: 24 h
Vero E6 [13] = test: drug sensitivity score (DSS) for viability; higher = more toxic; extreme values may be limits of the assay; details: 72 h
Calu-3 [14] = test: as above; details: 72 h
Caco-2 [15] = test: as above; details: 72 h
HepG2 [16] = test: as above; details: 72 h
U2OS [17] = test: as above; details: 72 h
Calu-3 [18] = test: relative viability EC50 (midpoint between 100% and the lowest measured viability); higher = less toxic; details: 72 h
Caco-2 [19] = test: as above; details: 72 h
HepG2 [20] = test: as above; details: 72 h

NCCC(Oc1ccc(C(F)(F)F)cc1)c1ccccc1 (centres undefined) [norfluoxetine]
Details | SARS-CoV-2 infection rate [%] | cell count [%] | cell viability [%] | morphology score | phospholipidosis EC50 [µM]
A549-ACE2 [11], 24 h | – | – | – | – | 6.78
A549-ACE2 [11], 48 h | – | – | – | – | 5.96
A549-ACE2 [11], 72 h | – | – | – | – | 10.7
Caco-2 [4], 1 nM | – | – | 90 | – | –
Caco-2 [4], 10 nM | – | – | 104 | – | –
Caco-2 [4], 100 nM | – | – | 104 | – | –
Caco-2 [4], 1000 nM | – | – | 103 | – | –
Caco-2 [4], 10000 nM | – | – | 63.3 | – | –
Calu-3 [3], 1 nM | – | – | 96.4 | – | –
Calu-3 [3], 10 nM | – | – | 108 | – | –
Calu-3 [3], 100 nM | – | – | 100 | – | –
Calu-3 [3], 1000 nM | – | – | 93.6 | – | –
Calu-3 [3], 10000 nM | – | – | 54.3 | – | –
HepG2 [5], 1 nM | – | – | 93.6 | – | –
HepG2 [5], 10 nM | – | – | 92.5 | – | –
HepG2 [5], 100 nM | – | – | 107 | – | –
HepG2 [5], 1000 nM | – | – | 73.7 | – | –
HepG2 [5], 10000 nM | – | – | 64.7 | – | –
U2OS [6], 1 nM | – | – | 96.9 | – | –
U2OS [6], 10 nM | – | – | 102 | – | –
U2OS [6], 100 nM | – | – | 108 | – | –
U2OS [6], 1000 nM | – | – | 102 | – | –
U2OS [6], 10000 nM | – | – | 90.9 | – | –
Vero E6 [2], 1 nM | – | – | 106 | – | –
Vero E6 [2], 10 nM | – | – | 94.5 | – | –
Vero E6 [2], 100 nM | – | – | 99.8 | – | –
Vero E6 [2], 1000 nM | – | – | 95.7 | – | –
Vero E6 [2], 10000 nM | – | – | 84.4 | – | –
[1], 0.3 µM | – | – | – | 0.13 | –
[1], 3 µM | – | – | – | 0.26 | –
[1], 10 µM | – | – | – | 0.86 | –
[1], 30 µM | – | – | – | 0 | –
[7], 0.3 µM | – | 99 | – | – | –
[7], 3 µM | – | 103 | – | – | –
[7], 10 µM | – | 128 | – | – | –
[7], 30 µM | – | 73 | – | – | –
[12], 0.3 µM | 99 | – | – | – | –
[12], 3 µM | 84 | – | – | – | –
[12], 10 µM | 17 | – | – | – | –
[12], 30 µM | 46 | – | – | – | –

Details | drug sensitivity score | relative viability EC50 [µM]
Caco-2 [15] | 1.5 | –
Calu-3 [14] | 3.4 | –
HepG2 [16] | 4.7 | –
U2OS [9] | – | > 10
U2OS [17] | 0 | –
Vero E6 [8] | – | > 10
Vero E6 [13] | 0.7 | –

drug-induced phospholipidosis [%], A549-ACE2 [10]
Details | 0.3 µM | 0.833333 µM | 3.33333 µM | 6.66667 µM | 10 µM | 30 µM
24 h | -1.03 | -3.68 | 19.4 | 73 | 85.6 | 130
48 h | 1.11 | -2.85 | 18.7 | 79.1 | 101 | 132
72 h | 2.19 | -3.51 | 8.94 | 50.5 | 78.9 | 153

CCC(C)(C)C(=O)O[C@H]1C[C@@H](C)C=C2C=C[C@H](C)[C@H](CC[C@@H]3C[C@@H](O)CC(=O)O3)[C@H]21 [simvastatin]
[1]
Details | morphology score
0.1 µM | 0.01
0.3 µM | 0.17
1 µM | 0.04
3 µM | -0.23

Cc1cccc(N(C)C(=S)Oc2ccc3ccccc3c2)c1 [tolnaftate]
cell viability [%]
Details | Caco-2 [4] | Calu-3 [3] | HepG2 [5] | U2OS [6] | Vero E6 [2]
1 nM | 93.3 | 98 | 100 | 99.1 | 101
10 nM | 99.7 | 90 | 100 | 99.2 | 102
100 nM | 94 | 94 | 91.6 | 94.9 | 98.5
1000 nM | 94.8 | 94.6 | 97.9 | 100 | 91.8
10000 nM | 96.8 | 101 | 93.8 | 93.3 | 88.6

Details | drug sensitivity score | relative viability EC50 [µM]
Caco-2 [15] | 0 | –
Caco-2 [19] | – | > 10
Calu-3 [14] | 0 | –
Calu-3 [18] | – | > 10
HepG2 [16] | 0 | –
HepG2 [20] | – | > 10
U2OS [9] | – | > 10
U2OS [17] | 0 | –
Vero E6 [8] | – | > 10
Vero E6 [13] | 0.1 | –

Cc1ccc(C(=O)C(C)CN2CCCCC2)cc1 (centres undefined) [tolperisone]
cell viability [%]
Details | Caco-2 [4] | Calu-3 [3] | HepG2 [5] | U2OS [6] | Vero E6 [2]
1 nM | 92.4 | 107 | 94.2 | 102 | 97.6
10 nM | 98.5 | 93.2 | 95 | 100 | 99.4
100 nM | 94.9 | 110 | 96.3 | 97.2 | 104
1000 nM | 94.4 | 100 | 102 | 98.4 | 100
10000 nM | 94.6 | 99.4 | 86.5 | 98.1 | 99.4

Details | drug sensitivity score | relative viability EC50 [µM]
Caco-2 [15] | 0 | –
Caco-2 [19] | – | > 10
Calu-3 [14] | 0 | –
Calu-3 [18] | – | > 10
HepG2 [16] | 0.1 | –
HepG2 [20] | – | > 10
U2OS [9] | – | > 10
U2OS [17] | 0 | –
Vero E6 [8] | – | > 10
Vero E6 [13] | 0 | –

CC(=O)Oc1cc(C(F)(F)F)ccc1C(=O)O [triflusal]
cell viability [%]
Details | Caco-2 [4] | Calu-3 [3] | HepG2 [5] | U2OS [6] | Vero E6 [2]
1 nM | 96 | 98.6 | 90.6 | 96.2 | 99.4
10 nM | 106 | 97.9 | 90.5 | 102 | 96.9
100 nM | 90 | 93.5 | 92.1 | 99.5 | 97.7
1000 nM | 98.4 | 92.2 | 101 | 97.9 | 100
10000 nM | 103 | 103 | 111 | 101 | 94.5

Details | drug sensitivity score | relative viability EC50 [µM]
Caco-2 [15] | 0 | –
Caco-2 [19] | – | > 10
Calu-3 [14] | 0 | –
Calu-3 [18] | – | > 10
HepG2 [16] | 0 | –
HepG2 [20] | – | > 10
U2OS [9] | – | > 10
U2OS [17] | 0 | –
Vero E6 [8] | – | > 10
Vero E6 [13] | 0 | –

CCOC(=O)N[C@@H]1CC[C@@H]2[C@@H](C1)C[C@H]1C(=O)O[C@H](C)[C@H]1[C@H]2/C=C/c1ccc(-c2cccc(F)c2)cn1 [vorapaxar]
cell viability [%]
Details | Caco-2 [4] | Calu-3 [3] | HepG2 [5] | U2OS [6] | Vero E6 [2]
1 nM | 90 | 98 | 105 | 102 | 92.5
10 nM | 93.2 | 95 | 112 | 98.7 | 103
100 nM | 103 | 102 | 100 | 102 | 99.8
1000 nM | 105 | 94.3 | 99.9 | 102 | 92.7
10000 nM | 83 | 99.9 | 94.3 | 89.1 | 105

Details | drug sensitivity score | relative viability EC50 [µM]
Caco-2 [15] | 0.2 | –
Caco-2 [19] | – | > 10
Calu-3 [14] | 0 | –
Calu-3 [18] | – | > 10
HepG2 [16] | 0 | –
HepG2 [20] | – | > 10
U2OS [9] | – | > 10
U2OS [17] | 0 | –
Vero E6 [8] | – | > 10
Vero E6 [13] | 0 | –
